How the values were obtained:
Assay in all cases: relative viability (nuclei count vs DMSO), 5 days (fraction); higher = more cells survive
[1] = compound: COc1cc(Nc2ncc(F)c(Nc3ccc4c(n3)NC(=O)C(C)(C)O4)n2)cc(OC)c1OC [R406] + O=C(CCCCCCC(=O)Nc1ccccc1)NO [Vorinostat] (partner 1 µM)
Outline: (§1)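 Values are medians from duplicate plates. Each reflects relative viability, defined as the nuclei count of treated wells over that of vehicle wells. Lung cancer cell lines in 1536-well plates were pin-tool dosed one day after seeding with one drug alone or with a fixed anchor-drug dose plus five library-drug doses (not always all listed) in √10 steps, then fixed, stained and imaged at 4× after 5 days.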

[2] = compound: O=C(/C=C/c1cccnc1)NCCCCC1CCN(C(=O)c2ccccc2)CC1 [Daporinad] + CCNC(=O)c1noc(-c2cc(C(C)C)c(O)cc2O)c1-c1ccc(CN2CCOCC2)cc1 [Luminespib] (partner 0.01 µM)
Outline: as §1

[3] = compound: O=C(/C=C/c1cccnc1)NCCCCC1CCN(C(=O)c2ccccc2)CC1 [Daporinad] + Cc1cc(Nc2cc(N3CCN(C)CC3)nc(Sc3ccc(NC(=O)C4CC4)cc3)n2)n[nH]1 [Tozasertib] (partner 0.1 µM)
Outline: as §1

[4] = compound: O=C(/C=C/c1cccnc1)NCCCCC1CCN(C(=O)c2ccccc2)CC1 [Daporinad] + O=C(c1cc(Cc2n[nH]c(=O)c3ccccc23)ccc1F)N1CCN(C(=O)C2CC2)CC1 [Olaparib] (partner 8 µM)
Outline: as §1

Row | Cell Line | relative viability ([1]; first compound 0.08 µM) | relative viability ([1]; first compound 0.253 µM) | relative viability ([1]; first compound 0.8 µM) | relative viability ([1]; first compound 2.53 µM) | relative viability ([1]; first compound 8 µM) | relative viability ([2]; first compound 0.0005 µM) | relative viability ([2]; first compound 0.001581 µM) | relative viability ([2]; first compound 0.005 µM) | relative viability ([2]; first compound 0.01581 µM) | relative viability ([3]; first compound 0.0005 µM) | relative viability ([3]; first compound 0.001581 µM) | relative viability ([3]; first compound 0.005 µM) | relative viability ([3]; first compound 0.01581 µM) | relative viability ([4]; first compound 0.0005 µM) | relative viability ([4]; first compound 0.001581 µM) | relative viability ([4]; first compound 0.005 µM) | relative viability ([4]; first compound 0.01581 µM)
1 | CAL-12T | 0.785 | 0.723 | 0.758 | 0.762 | 0.509 | 0.17 | 0.41 | 0.545 | 0.193 | 0.324 | 0.325 | 0.158 | 0.124 | 0.624 | 0.596 | 0.512 | 0.269
2 | SK-LU-1 | 0.84 | 0.822 | 0.764 | 0.555 | 0.155 | 0.193 | 0.204 | 0.227 | 0.225 | 0.316 | 0.289 | 0.281 | 0.35 | 0.426 | 0.548 | 0.394 | 0.299
3 | NCI-H1650 | 0.635 | 0.634 | 0.664 | 0.396 | 0.389 | 0.187 | 0.182 | 0.182 | 0.196 | 0.387 | 0.44 | 0.461 | 0.275 | 0.724 | 0.601 | 0.431 | 0.443
4 | BEN | 0.606 | 0.601 | 0.607 | 0.555 | 0.542 | 0.356 | 0.559 | 0.456 | 0.437 | 0.552 | 0.547 | 0.422 | 0.546 | 0.827 | 1.02 | 1.02 | 0.914
5 | EMC-BAC-2 | 0.405 | 0.785 | 0.53 | 0.411 | 0.145 | 1.19 | 1.22 | 1.25 | 0.331 | 0.321 | 0.311 | 0.224 | 0.204 | 0.387 | 0.342 | 0.316 | 0.235
6 | LU99A | 0.519 | 0.484 | 0.553 | 0.361 | 0.312 | 0.229 | 0.227 | 0.286 | 0.223 | 0.26 | 0.254 | 0.29 | 0.249 | 0.188 | 0.198 | 0.199 | 0.186
7 | ABC-1 | 1.33 | 1.37 | 1.35 | 1.11 | 0.765 | 0.524 | 0.583 | 0.527 | 0.498 | 0.186 | 0.185 | 0.179 | 0.209 | 1 | 0.82 | 0.781 | 0.582
8 | NCI-H1793 | 0.632 | 0.967 | 0.928 | 0.128 | 0.182 | 0.163 | 0.203 | 0.158 | 0.217 | 0.327 | 0.326 | 0.34 | 0.553 | 0.829 | 0.952 | 0.81 | 0.835
9 | NCI-H1299 | – | – | – | – | – | – | – | – | – | – | – | – | – | 0.972 | 0.857 | 0.904 | 0.855
10 | EBC-1 | – | – | – | – | – | – | – | – | – | – | – | – | – | 0.597 | 0.667 | 0.602 | 0.49
11 | NCI-H2347 | 0.586 | 0.651 | 0.767 | 0.383 | 0.397 | 0.607 | 0.43 | 0.322 | 0.431 | 0.597 | 0.636 | 0.504 | 0.596 | 0.543 | 0.604 | 0.571 | 0.416
12 | NCI-H1993 | 0.892 | 1.03 | 0.963 | 0.433 | 0.447 | 0.795 | 0.797 | 0.787 | 0.891 | 0.62 | 0.576 | 0.633 | 0.656 | 0.899 | 1.02 | 0.948 | 1.05
13 | NCI-H322M | 0.816 | 0.873 | 0.864 | 0.633 | 0.468 | 0.997 | 0.97 | 0.853 | 0.608 | 0.572 | 0.485 | 0.396 | 0.312 | 0.547 | 0.567 | 0.547 | 0.516
14 | PC-14 | 0.71 | 0.84 | 0.975 | 0.523 | 0.451 | – | 0.106 | 0.196 | 0.196 | 0.688 | 0.633 | 0.606 | 0.709 | 0.242 | 0.194 | 0.168 | 0.087
15 | NCI-H1792 | – | – | – | – | – | – | 0.443 | 0.347 | 0.604 | – | – | – | – | 0.466 | 0.493 | 0.228 | 0.222
16 | NCI-H1648 | 0.457 | 0.427 | 0.562 | 0.468 | 0.643 | – | – | – | – | 0.362 | 0.652 | 0.416 | 0.6 | 0.641 | 0.667 | – | 0.523
17 | NCI-H1623 | – | – | – | – | – | 0.618 | 0.497 | 0.472 | 0.555 | 0.438 | 0.44 | 0.39 | 0.445 | – | – | – | –
18 | A549 | – | – | – | – | – | – | – | – | – | – | – | – | – | 0.324 | 0.184 | 0.128 | 0.0773
19 | NCI-H1563 | – | – | – | – | – | 0.535 | 0.582 | 0.493 | 0.485 | – | – | – | – | – | – | – | –
20 | HCC-78 | 0.452 | 0.426 | 0.412 | 0.29 | 0.331 | – | – | – | – | 0.417 | – | 0.357 | 0.637 | 0.531 | 0.786 | 0.649 | 0.559
21 | IA-LM | 0.984 | 0.756 | 1.04 | 0.99 | 1.05 | – | – | – | – | – | – | – | – | 0.798 | 0.766 | 0.707 | 0.475
22 | NCI-H1703 | – | – | – | – | – | – | – | – | – | – | – | – | – | 0.514 | 0.388 | 0.576 | 0.41

From the supplement of paper PMC10307832
